Among the data in EP0233461B2, “4,5,6-Substituted-2-pyrimidinamines” (AMERICAN CYANAMID COMPANY, priority 1986, dated 1987) are IC50 values, retold here.

The structures appear in SMILES notation. Where a name gives a salt, the structure may show the parent alone.

One may read the IC50 as the point on the concentration scale where inhibition reaches its midpoint.

One experiment concerns human basophils. The experiment can be described thus: Inhibition of histamine release from immunologically stimulated human basophils. In kind it is cell-based. Particulars: Homo sapiens, concentration causing 50% inhibition of histamine release, by linear regression; active if IC50 ≦ 48 µM. As for the experimental part:
The blood is allowed to sediment at room temperature in two 50 ml polycarbonate centrifuge tubes until a sharp interface develops between the red cells and plasma (60-90 minutes). The plasma (top) layer from each tube is withdrawn by pipet and transferred to respective 50 ml polycarbonate tubes. The plasma is centrifuged for 8 minutes at 110X G at 4°C. The supernatant is carefully poured off as completely as possible and the cell button is resuspended in 2-3 ml of Tris-A buffer using a siliconized Pasteur pipet. The resuspension is accomplished by drawing the liquid gently in an out of the pipet, with the tip below the liquid until an even suspension of cells is obtained. Sufficient Tris-A buffer is then added to bring the volume in the tube to about 45 ml and the tube is centrifuged at 110X G for 8 minutes at 4°C. The supernatant is poured off and the cell button is resuspended and centrifuged as described above. The supernatant is poured off and the cell button is suspended in 2-3 ml of Tris-ACM buffer to make the final volume sufficient to allow addition to the reaction tubes. Reaction tubes containing anti-IgE or antigens, either alone or with test compound in a total volume of 0.2 ml are prepared and placed in a 37°C bath. The cells are warmed to 37°C and frequently swirled to ensure an even suspension, while 1.0 ml aliquots are added to each reaction tube. The tubes are then incubated for 60 minutes at 37°C, vortexing the tubes gently every 15 minutes to keep the cells evenly suspended. When the reaction is complete, the tubes are centrifuged at 4°C for 10 minutes at 1500 rpm to sediment the cells. […] Blanks and totals are included in each test. The blanks have cells and all reagents except antigen or anti-IgE. The totals contain 0.24 ml of 8% perchloric acid, one ml of cells and 0.2 ml of buffer. All samples are then centrifuged to remove the precipitate protein. […] The automated system consists of the following Technicon Autoanalyzer II components Sampler IV, Dual-Speed Proportioning Pump III, Fluoronephelometer with a narrow pass primary filter 7-60 and a secondary filter 3-74, Recorder, and Digital Printer. The manifold used is the one described by Siraganian vide supra, with the following modifications: the dialyzer is omitted; all pumping tubes pass through a single proportioning pump with large capacity and twice the volume of sample is taken for anaylsis. The automated chemistry consists of the following steps: Extraction from alkaline saline into butanol, back extraction into dilute hydrochloric acid by addition of heptane, reaction of histamine with o-phthaldialdehyde (OPT) at high pH and conversion of the OPT adduct to a stable fluorophore with phosphoric acid. The reaction product is then passed through the fluorometer. The full scale response is adjusted to 50 ng histamine base with a threshold sensitivity of approximately 0.5 ng. The instrument blank (wash) is substracted from the ng histamine of each sample. Then the ng histamine of each sample is divided by the mean of the three totals (cells lysed with perchloric acid) to obtain percent release. Control samples contain antigen but no test compound. Blank (or spontaneous release) samples contain neither antigen nor test compound. The mean of the blanks (three replicates) is subtracted from the percent release for controls and test compounds.
`c1ccc(Nc2nccc(-c3cccnc3)n2)cc1` [N-Phenyl-4-(3-pyridinyl)-2-pyrimidinamine, sulfate] displayed an IC50 of 3 µM.

The experiment is the same for the next values; noted with them: Homo sapiens, concentration causing 50% inhibition of histamine release, by linear regression; active if IC50 ≦ 48 µM; read-out: IC50.
For the compound `c1coc(-c2ccnc(Nc3ccc(-n4ccnc4)cc3)n2)c1` [4-(2-Furanyl)-N-[4-(1H-imidazol-1-yl)phenyl]-2-pyrimidinamine], the IC50 is 2.2 µM.

Take `Fc1cccc(Nc2nccc(-c3cccnc3)n2)c1` [N-(3-Fluorophenyl)-4-(3-pyridinyl)-2-pyrimidinamine]: the IC50 is 3.3 µM. As to `CCc1cccc(Nc2nccc(-c3ccccn3)n2)c1` [N-(3-Ethylphenyl)-4-(2-pyridinyl)-2-pyrimidinamine], the IC50 worked out at 1.4 µM. For the compound `COc1ccc(Nc2nccc(-c3cccs3)n2)cc1` [N-(4-Methoxyphenyl)-4-(2-thienyl)-2-pyrimidinamine], the IC50 stood at 3.9 µM.

As for `c1cc(Nc2nccc(-c3ccco3)n2)cc(-n2ccnc2)c1` [4-(2-Furanyl)-N-[3-(1H-imidazol-1-yl)phenyl]-2-pyrimidinamine], the IC50 was 0.8 µM. Still for that read-out and setting: the same measure for `NS(=O)(=O)c1ccc(Nc2nccc(-c3ccccn3)n2)cc1` [4-[[4-(2-Pyridinyl)-2-pyrimidinyl]amino]-benzenesulfonamide]: 4.5 µM; for `CC(=O)c1cccc(Nc2nccc(-c3cccnc3)n2)c1` [1-[3-[[4-(3-Pyridinyl)-2-pyrimidinyl]amino]-phenyl]ethanone]: 4.1 µM; for `CC(=NNC(N)=O)c1ccc(Nc2nccc(-c3cccnc3)n2)cc1` [2-[1-[4-[[4-(3-Pyridinyl)-2-pyrimidinyl]amino]phenyl]ethylidene]hydrazinecarboxamide]: 8.1 µM. On the same count and under the same terms, the same measure for `CC(=O)Nc1ccc(Nc2nccc(-c3ccccn3)n2)cc1` [N-[4-[[4-(2-Pyridinyl)-2-pyrimidinyl]amino]-phenyl]acetamide]: 1.5 µM.

With `c1ccc(Nc2nccc(-c3ccnc4ccccc34)n2)cc1` [N-Phenyl-4-(4-quinolinyl)-2-pyrimi-dinamine], the IC50 was 3 µM. Same read-out and setting: the same measure for `CN(C)c1cccc(Nc2nccc(-c3ccccn3)n2)c1` [N,N-Dimethyl-N'-[4-(2-pyridinyl)-2-pyrimidinyl]-1,3-benzenediamine]: 0.5 µM. On the same count and under the same terms, as for `CC(=O)Nc1ccc(Nc2nccc(-c3ccc(C)s3)n2)cc1` [N-[4-[[4-(5-Methyl-2-thienyl)-2-pyrimidinyl]amino]phenyl]acetamide], the figure is 0.3 µM. Take `Cc1ccc(Nc2nccc(-c3ccncc3)n2)c(C)c1` [N-(2,4-Dimethylphenyl)-4-(4-pyridinyl)-2-pyrimidinamine]: the IC50 was 24 µM.

As for `CN(C)c1ccc(Nc2nccc(-c3ccco3)n2)cc1` [N'-[4-(2-Furanyl)-2-pyrimidinyl]-N,N-dimethyl-1,4-benzenediamine], the IC50 came to 1.9 µM. Still for that read-out and setting: the same measure for `CCc1ccc(Nc2nccc(-c3ccncc3)n2)cc1` [N-(4-Ethylphenyl)-4-(4-pyridinyl)-2-pyrimidinamine]: 7.7 µM; for `CC(O)c1ccc(Nc2nccc(-c3cccnc3)n2)cc1` (stereo not drawn) [α-Methyl-4-[[4-(3-pyridinyl)-2-pyrimidinyl]amino]benzenemethanol]: 4.5 µM; for `CCc1ccc(Nc2nccc(-c3cc[n+]([O-])cc3)n2)cc1` [N-(4-Ethylphenyl)-4-(4-pyridinyl)-2-pyrimidinamine, pyridine-1-oxide]: 17.7 µM. Consider `CN(C)c1ccc(Nc2nccc(-c3cc4ccccc4o3)n2)cc1` [N'-[4-(2-Benzofuranyl)-2-pyrimidinyl]-N,N-dimethyl-1,4-benzenediamine], for which the IC50 was 5.6 µM. Same read-out and setting: as for `Cc1cccc(Nc2nccc(-c3ccc(C)s3)n2)c1` [N-(3-Methylphenyl)-4-(5-methyl-2-thienyl)-2-pyrimidinamine], the figure is 1.4 µM. The same measure, in the same setting: as for `Cc1ccc(-c2ccnc(Nc3cccc(N(C)C)c3)n2)o1` [N,N-Dimethyl-N'-[4-(5-methyl-2-furanyl)-2-pyrimidinyl]-1,3-benzenediamine], the figure is 1.6 µM; as for `Cc1cc(-c2ccnc(Nc3ccc(N(C)C)cc3)n2)c(C)o1` [N'-[4-(2,5-Dimethyl-3-furanyl)-2-pyrimidinyl]-N,N-dimethyl-1,4-benzenediamine], 4.9 µM. `c1ccc(-c2ccnc(Nc3ccc(-n4ccnc4)cc3)n2)nc1` [N-[4-(1H-Imidazol-1-yl)phenyl]-4-(2-pyridinyl)-2-pyrimidinamine]: the half-inhibitory concentration (IC50) was determined as 1.8 µM. In the case of `c1cncc(-c2ccnc(Nc3cccc(-n4ccnc4)c3)n2)c1` [N-[3-(1H-Imidazol-1-yl)phenyl]-4-(3-pyridinyl)-2-pyrimidinamine], the 50% inhibitory concentration (IC50) worked out at 0.1 µM. Same read-out and setting: as for `CCOC(=O)c1ccc(Nc2nccc(-c3cccnc3)n2)cc1` [4-[[4-(3-Pyridinyl)-2-pyrimidinyl]amino]-benzoic acid, ethyl ester], the figure is 12.4 µM; as for `CC(=O)N(C)c1ccc(Nc2nccc(-c3ccncc3)n2)cc1` [N-Methyl-N-[4-[[4-(4-pyridinyl)-2-pyrimidinyl]amino]phenyl]acetamide], 0.1 µM. The same measure, in the same setting: the same measure for `Cc1cc(C)c(Nc2nccc(-c3ccncc3)n2)c(C)c1` [4-(4-Pyridinyl)-N-(2,4,6-trimethylphenyl)-2-pyrimidinamine]: 10.5 µM; for `Fc1cccc(F)c1Nc1nccc(-c2ccncc2)n1` [N-(2,6-Difluorophenyl)-4-(4-pyridinyl)-2-pyrimidinamine]: 2.9 µM; for `Cc1cc(-c2ccc(C)s2)nc(Nc2ccccc2)n1` [4-Methyl-6-(5-methyl-2-thienyl)-N-phenyl-2-pyrimidinamine]: 24.8 µM. Same read-out and setting: as for `CCc1ccc(Nc2nccc(-c3ccccn3)n2)cc1` [N-(4-Ethylphenyl)-4-(2-pyridinyl)-2-pyrimidinamine], the figure is 2.1 µM; as for `Clc1cccc(Nc2nccc(-c3ccccn3)n2)c1` [N-(3-Chlorophenyl)-4-(2-pyridinyl)-2-pyrimidinamine], 1.3 µM. Take `CCc1ccc(Nc2nccc(-c3ccc(C)s3)n2)cc1` [N-(4-Ethylphenyl)-4-(5-methyl-2-thienyl)-2-pyrimidinamine]: the IC50 was 36.3 µM. Same read-out and setting: as for `CC(N)c1ccc(Nc2nccc(-c3cccnc3)n2)cc1` (stereo not drawn) [N-[4-[1-Aminoethyl)phenyl]-4-(3-pyridinyl)-2-pyrimidinamine, trihydrochloride], the figure is 0.8 µM; as for `Cc1cccc(Nc2nccc(-c3cnccn3)n2)c1` [N-(3-Methylphenyl)-4-pyrazinyl-2-pyrimidinamine], 5.4 µM. Still for that read-out and setting: as for `CCN(CC)CCOc1cccc(Nc2nccc(-c3ccco3)n2)c1` [N-[3-[2-(Diethylamino)ethoxy]phen-yl]-4-(2-furanyl)-2-pyrimidinamine], the figure is 1.3 µM.

Still in this experiment, the particulars now being: concentration causing 50% inhibition of histamine release, by linear regression; active if IC50 ≦ 48 µM; dinitrate.
With `c1ccc(Nc2nccc(-c3ccncc3)n2)cc1` [N-Phenyl-4-(4-pyridinyl)-2-pyrimidinamine, dinitrate], half-maximal inhibition (IC50) was put at 1.2 µM.

Still in this experiment, the particulars now being: concentration causing 50% inhibition of histamine release, by linear regression; active if IC50 ≦ 48 µM; read-out: IC50.
Regarding `c1ccc(Nc2nccc(-c3ccncc3)n2)cc1` [N-Phenyl-4-(4-pyridinyl)-2-pyrimidinamine, (Z)-2-butenedioat] [N-Phenyl-4-(4-pyridinyl)-2-pyrimidinamine, (Z)-2-butenedioate (1:1)], the IC50 came out at 1 µM. Take `CN(C)c1ccc(Nc2nccc(-c3cccnc3)n2)cc1` [N,N-Dimethyl-N'-[4-(3-pyridinyl)-2-pyrimidinyl]-1,4-benzenediamine]: the IC50 stood at 3.7 µM. With `CN(C)c1ccc(Nc2nccc(-c3ccncc3)n2)cc1` [N-[4-(Dimethylamino)phenyl]-4-(4-pyridinyl)-2-pyrimidinamine], the IC50 was 3.8 µM.
